Laboratory results from ChEMBL document CHEMBL1909046, “DrugMatrix in vitro pharmacology data”.

Tests used:
Cytochrome P450 2C9 = Cytochrome P450 2C9 (Homo sapiens, UniProt P11712); conditions: bti-tn-5b1-4; also: in other assays of this panel Not Active means under 50% inhibition at 10 µM
[1] = target: Tyrosine-protein kinase Fyn (Homo sapiens, UniProt P06241); assay: biochemical; assay type: cell-based, Insect cells; conditions: insect cells;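 also: enzymatic inhibition of Fyn kinase activity measured with Poly(Glu:Tyr) as the phosphorylation substrate; in other assays of this panel Not Active means under 50% inhibition at 10 µM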
[2] = target: Epidermal growth factor receptor (Homo sapiens, UniProt P00533); assay: DRUGMATRIX: Protein Tyrosine Kinase, EGF Receptor enzyme inhibition (substrate: Poly(Glu:Tyr)); assay type: cell-based, Insect cells; conditions: insect cells; Not Active = under 50% inhibition at 10 µM
[3] = target: Beta-2 adrenergic receptor (Homo sapiens, UniProt P07550); assay: DRUGMATRIX: Adrenergic beta2 radioligand binding (ligand: [3H] CGP-12177); assay type: cell membranes, CHO, Membrane; conditions: cho; Not Active = under 50% inhibition at 10 µM
[4] = DRUGMATRIX: Purinergic P2X radioligand binding (ligand: [3H] alpha, beta-Methylene-ATP); assay type: cell membranes, Oryctolagus cuniculus, New Zealand albino, Urinary bladder, Membrane; conditions: Not Active = under 50% inhibition at 10 µM
B2 bradykinin receptor = target: T1, B2 bradykinin receptor (Homo sapiens, UniProt P30411); assay type: cell membranes, Membrane; conditions: chem-1; also: in other assays of this panel Not Active means under 50% inhibition at 10 µM
T1 sequence (P30411 whole entry): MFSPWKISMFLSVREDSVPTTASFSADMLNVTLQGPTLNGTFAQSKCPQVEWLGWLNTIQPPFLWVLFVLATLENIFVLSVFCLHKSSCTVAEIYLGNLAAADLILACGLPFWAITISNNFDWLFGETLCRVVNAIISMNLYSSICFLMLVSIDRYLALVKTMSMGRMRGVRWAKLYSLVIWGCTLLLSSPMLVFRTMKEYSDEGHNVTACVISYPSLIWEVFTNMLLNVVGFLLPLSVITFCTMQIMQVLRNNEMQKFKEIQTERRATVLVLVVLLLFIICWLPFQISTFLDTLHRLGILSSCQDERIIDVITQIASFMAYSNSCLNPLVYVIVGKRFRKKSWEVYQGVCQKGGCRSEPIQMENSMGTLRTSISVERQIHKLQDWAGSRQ

[5] = target: C-C chemokine receptor type 2 (Homo sapiens, UniProt P41597); assay type: cell membranes, CHO-K1, Membrane; also: in other assays of this panel Not Active means under 50% inhibition at 10 µM
[6] = target: T2, C-X-C chemokine receptor type 2 (Homo sapiens, UniProt P25025); assay type: cell membranes, CHO-K1, Membrane; conditions: cho-k1; also: in other assays of this panel Not Active means under 50% inhibition at 10 µM
T2 sequence (P25025 whole entry): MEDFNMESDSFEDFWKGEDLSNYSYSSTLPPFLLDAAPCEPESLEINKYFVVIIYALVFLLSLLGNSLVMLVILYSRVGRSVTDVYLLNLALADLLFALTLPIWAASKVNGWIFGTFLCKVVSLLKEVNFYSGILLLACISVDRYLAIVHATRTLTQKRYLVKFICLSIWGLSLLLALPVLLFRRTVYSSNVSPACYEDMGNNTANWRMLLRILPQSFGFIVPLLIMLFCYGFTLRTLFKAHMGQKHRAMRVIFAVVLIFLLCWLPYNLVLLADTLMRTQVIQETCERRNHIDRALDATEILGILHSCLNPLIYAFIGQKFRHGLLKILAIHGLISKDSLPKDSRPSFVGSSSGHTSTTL

Sequence of C-C chemokine receptor type 2 (P41597 whole entry): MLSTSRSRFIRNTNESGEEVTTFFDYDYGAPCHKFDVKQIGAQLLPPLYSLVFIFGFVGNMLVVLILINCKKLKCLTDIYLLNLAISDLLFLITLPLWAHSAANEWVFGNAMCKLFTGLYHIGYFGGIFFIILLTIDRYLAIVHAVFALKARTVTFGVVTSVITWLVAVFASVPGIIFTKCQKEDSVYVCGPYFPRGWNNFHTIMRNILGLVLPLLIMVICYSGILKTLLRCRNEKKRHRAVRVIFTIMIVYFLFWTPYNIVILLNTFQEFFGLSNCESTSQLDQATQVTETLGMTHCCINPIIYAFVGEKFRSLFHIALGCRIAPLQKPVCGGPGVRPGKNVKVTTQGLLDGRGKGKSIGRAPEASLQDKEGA
Sequence of Cytochrome P450 2C9 (P11712 whole entry): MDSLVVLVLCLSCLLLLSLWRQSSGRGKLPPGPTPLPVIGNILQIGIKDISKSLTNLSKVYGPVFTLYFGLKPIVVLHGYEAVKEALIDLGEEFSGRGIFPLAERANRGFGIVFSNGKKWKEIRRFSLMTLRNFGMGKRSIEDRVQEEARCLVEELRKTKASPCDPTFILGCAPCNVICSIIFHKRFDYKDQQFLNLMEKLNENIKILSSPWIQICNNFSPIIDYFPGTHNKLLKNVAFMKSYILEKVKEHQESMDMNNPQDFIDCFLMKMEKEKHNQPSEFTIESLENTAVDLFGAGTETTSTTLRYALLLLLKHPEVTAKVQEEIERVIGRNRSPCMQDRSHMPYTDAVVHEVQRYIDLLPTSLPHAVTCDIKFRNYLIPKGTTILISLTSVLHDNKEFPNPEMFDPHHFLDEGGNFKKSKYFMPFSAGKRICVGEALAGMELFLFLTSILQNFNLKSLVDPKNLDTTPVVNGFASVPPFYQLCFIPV
Sequence of Tyrosine-protein kinase Fyn (P06241 whole entry): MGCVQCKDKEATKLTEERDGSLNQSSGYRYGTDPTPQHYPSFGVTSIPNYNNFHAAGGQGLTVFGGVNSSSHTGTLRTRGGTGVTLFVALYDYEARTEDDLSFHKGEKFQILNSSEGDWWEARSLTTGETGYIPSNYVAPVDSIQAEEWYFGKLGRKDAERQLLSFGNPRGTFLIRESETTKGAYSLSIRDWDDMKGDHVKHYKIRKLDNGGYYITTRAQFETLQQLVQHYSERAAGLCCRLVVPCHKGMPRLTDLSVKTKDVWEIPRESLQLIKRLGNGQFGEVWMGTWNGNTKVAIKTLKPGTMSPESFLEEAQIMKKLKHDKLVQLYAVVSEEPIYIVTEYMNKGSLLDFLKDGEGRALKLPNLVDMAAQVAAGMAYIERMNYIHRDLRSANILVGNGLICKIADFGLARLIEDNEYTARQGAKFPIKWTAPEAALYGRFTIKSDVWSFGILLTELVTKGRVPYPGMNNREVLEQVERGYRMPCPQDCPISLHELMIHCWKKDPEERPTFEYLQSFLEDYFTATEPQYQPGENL

Compound | IC50 (Cytochrome P450 2C9) | Ki (Cytochrome P450 2C9) | IC50 [1] | IC50 [2] | IC50 [3] | IC50 [4] | Ki [4] | IC50 (B2 bradykinin receptor) | IC50 ([5]; cho-k1) | IC50 [6] | IC50 ([5]; read-out: IC50) [nM] | Ki ([5]; read-out: Ki) [nM] | Ki [1] | Ki [2] | Ki [3] | Ki (B2 bradykinin receptor) | Ki ([5]; cho-k1) | Ki [6]
C=CCN1CC[C@]23c4c5ccc(O)c4O[C@H]2/C(=N/N=C2\CC[C@@]4(O)[C@H]6Cc7ccc(O)c8c7[C@@]4(CCN6CC=C)[C@H]2O8)CC[C@@]3(O)[C@H]1C5 [NALOXONAZINE] | Not Active | Not Active | Not Active | Not Active | Not Active | Not Active | Not Active | Not Active | Not Active | Not Active |  |  |  |  |  |  |  | 
O=C(O)CO [GLYCOLIC ACID] | Not Active | Not Active | Not Active | Not Active | Not Active | Not Active | Not Active | Not Active | Not Active | Not Active |  |  |  |  |  |  |  | 
COC(=O)Nc1nc2ccc(Sc3ccccc3)cc2[nH]1 [FENBENDAZOLE] | Not Active | Not Active | Not Active | Not Active | Not Active | Not Active | Not Active | Not Active | Not Active | Not Active |  |  |  |  |  |  |  | 
CC12CCC(CC1)C(C)(C)O2 [EUCALYPTOL] | Not Active | Not Active | Not Active | Not Active | Not Active | Not Active | Not Active | Not Active | Not Active | Not Active |  |  |  |  |  |  |  | 
O=C(Nc1ccc(Cl)c(Cl)c1)c1cc(Cl)cc(Cl)c1O [3,3',4',5-TETRACHLOROSALICYLANILIDE] | Not Active | Not Active | Not Active | Not Active | Not Active | Not Active | Not Active | Not Active | Not Active | Not Active |  |  |  |  |  |  |  | 
Cc1ccnc2c1NC(=O)c1cccnc1N2C1CC1 [NEVIRAPINE] | Not Active | Not Active | Not Active | Not Active | Not Active | Not Active | Not Active | Not Active | Not Active | Not Active |  |  |  |  |  |  |  | 
O=C1CN(/N=C/c2ccc([N+](=O)[O-])o2)C(=O)N1 [NITROFURANTOIN] | Not Active | Not Active | Not Active | Not Active | Not Active | Not Active | Not Active | Not Active | Not Active | Not Active |  |  |  |  |  |  |  | 
O=c1[nH]c2ccccc2c2ccccc12 | Not Active | Not Active | Not Active | Not Active | Not Active | Not Active | Not Active | Not Active | Not Active | Not Active |  |  |  |  |  |  |  | 
COC(=O)C[C@](O)(CCC(C)(C)O)C(=O)O[C@@H]1C(OC)=C[C@]23CCCN2CCc2cc4c(cc2[C@H]13)OCO4 [HARRINGTONINE] | Not Active | Not Active | Not Active | Not Active | Not Active | Not Active | Not Active | Not Active | Not Active | Not Active |  |  |  |  |  |  |  | 
Nc1nc(F)nc2c1ncn2[C@@H]1O[C@H](CO)[C@@H](O)[C@@H]1O [FLUDARABINE] | Not Active | Not Active | Not Active | Not Active | Not Active | Not Active | Not Active | Not Active | Not Active | Not Active |  |  |  |  |  |  |  | 
C=C(Cl)Cl [1,1-DICHLOROETHENE] | Not Active | Not Active | Not Active | Not Active | Not Active | Not Active | Not Active | Not Active | Not Active | Not Active |  |  |  |  |  |  |  | 
CCC1(c2ccccc2)C(=O)NC(=O)NC1=O [PHENOBARBITAL] | Not Active | Not Active | Not Active | Not Active | Not Active | Not Active | Not Active | Not Active | Not Active | Not Active |  |  |  |  |  |  |  | 
CCN1C[C@]2(COC)[C@H](O)C[C@H](OC)[C@@]34[C@@H]5C[C@@]6(O)[C@H](OC(=O)c7ccccc7)[C@@H]5[C@@](OC(C)=O)([C@@H]([C@H](OC)[C@H]23)[C@@H]14)[C@@H](O)[C@@H]6OC [ACONITINE] | Not Active | Not Active | Not Active | Not Active | Not Active | Not Active | Not Active | Not Active | Not Active | Not Active |  |  |  |  |  |  |  | 
CCN1CCN(C(=O)N[C@@H](C(=O)N[C@@H]2C(=O)N3[C@@H]2SC(C)(C)[C@@H]3C(=O)O)c2ccccc2)C(=O)C1=O [PIPERACILLIN] | Not Active | Not Active | Not Active | Not Active | Not Active | Not Active | Not Active | Not Active | Not Active | Not Active |  |  |  |  |  |  |  | 
O=C(O)c1ccccc1 [BENZOIC ACID] | Not Active | Not Active | Not Active | Not Active | Not Active | Not Active | Not Active | Not Active | Not Active | Not Active |  |  |  |  |  |  |  | 
OC[C@H]1O[C@@H]2O[C@H]3[C@H](O)[C@@H](O)[C@@H](O[C@H]4[C@H](O)[C@@H](O)[C@@H](O[C@H]5[C@H](O)[C@@H](O)[C@@H](O[C@H]6[C@H](O)[C@@H](O)[C@@H](O[C@H]7[C@H](O)[C@@H](O)[C@@H](O[C@H]1[C@H](O)[C@H]2O)O[C@@H]7CO)O[C@@H]6CO)O[C@@H]5CO)O[C@@H]4CO)O[C@@H]3CO [ALFADEX] | Not Active | Not Active | Not Active | Not Active | Not Active | Not Active | Not Active | Not Active | Not Active | Not Active |  |  |  |  |  |  |  | 
c1ccc2sc(SSc3nc4ccccc4s3)nc2c1 [BENZOTHIAZYL DISULFIDE] | Not Active | Not Active | Not Active | Not Active | Not Active | Not Active | Not Active | Not Active |  | Not Active | 2410 | 929 |  |  |  |  |  | 
POVIDONE | Not Active | Not Active | Not Active | Not Active | Not Active | Not Active | Not Active | Not Active | Not Active | Not Active |  |  | Not Active | Not Active | Not Active | Not Active | Not Active | Not Active
C=CCO [ALLYL ALCOHOL] | Not Active | Not Active | Not Active | Not Active | Not Active | Not Active | Not Active | Not Active | Not Active | Not Active |  |  |  |  |  |  |  | 
Clc1cc(Cl)c(OCC#CI)cc1Cl [HALOPROGIN] | Not Active | Not Active | Not Active | Not Active | Not Active | Not Active | Not Active | Not Active | Not Active | Not Active |  |  |  |  |  |  |  | 
